# Laboratory results taken from patent US20230159509A1 (Amathus Therapeutics, Inc., priority 2020, published 2023).
# How the values were obtained:
# human α-synuclein-WT = assay: α-synuclein expression and aggregation assay in differentiated neuronal ReNcell VM cells; type: cell-based
# Description: Assay measuring α-synuclein expression and aggregation in differentiated neuronal ReNcell VM cells transduced with human α-synuclein-WT were used to assess the α-synuclein modulation characteristics of compounds. To this purpose, ReNcell VM cells in growth medium (containing EGF and bFGF) were seeded in 96-well laminin-coated plates.
# Three (3) days post-seeding, on DO, the cells were refreshed with differentiation medium (devoid of EGF and bFGF, supplemented with cAMP and GDNF) and transduced with α-synuclein-encoding adenoviruses. On D1, after overnight transduction, the adenoviral medium was removed and test compound CRCs diluted in differentiation medium were added to the cells in biological duplicates (i.e. in wells located on separate assay plates processed on the same day). The assay includes a compound refreshment on D4. On each plate tested, up to six (6) vehicle control samples (0.1% DMSO) and up to six (6) positive control samples (10 μM KU 0063794) were included. Furthermore, each assay run includes an 8-point CRC of the reference compound KU 0063794. After six (6) days of compound treatment (on D7), the cells were fixed using 3.7% formaldehyde.
# Assay readouts were aggregate-selective (MJFR-14) and α/β-synuclein (Syn205) immunoreactivity, quantified using high-content analysis with algorithms for Density×Area (D×A). Co-staining of cell nuclei with DAPI is performed to quantify cell number as a measure of potential toxicity. Synuclein immunoreactivity (D×A) was normalized for the number of nuclei (nuc) per imaged well (D×A/nuc). Compound performance was evaluated by efficacy (percentage inhibition (PIN) relative to positive control) and potency (pIC50, when calculable) determination.
# Assay quality was confirmed using the following pre-set criteria: Toxicity: ≤25% nuclei loss compared to average DMSO control, Coefficient of variation (CV): ≤20% CV for DMSO control, Assay window: ≥2.0 for Syn205, and Assay window: ≥1.5 for MJF-14.
# [1] = tested on: primary rat dopaminergic TH-positive neurons; assay: ROS production and neurite network in primary rat dopaminergic TH-positive neurons injured with MPP+ or 6-OHDA; type: cell-based
structure (smiles),measurement,setting,value
COc1ncc(NC(=O)c2csc(-c3ccccc3)n2)cc1S(=O)(=O)Nc1c(C)cccc1C [compound 1178],MJFR-14 Max efficacy (PE),human α-synuclein-WT; MJFR-14,36.2
same,MJFR-14 Max efficacy (PIN),"human α-synuclein-WT; MJFR-14, percentage inhibition relative to positive control (10 μM KU 0063794)",52.1
same,Syn205 Max efficacy (PE),human α-synuclein-WT; Syn205,44.9
same,Syn205 Max efficacy (PIN),"human α-synuclein-WT; Syn205, percentage inhibition relative to positive control (10 μM KU 0063794)",64.7
same,MJFR-14 Potency (pIC50),"human α-synuclein-WT; aggregate-selective (MJFR-14) immunoreactivity, D×A/nuc",5.6
same,Syn205 Potency (pIC50),"human α-synuclein-WT; α/β-synuclein (Syn205) immunoreactivity, D×A/nuc",5.6
same,neurite network of primary rat TH+ dopaminergic neurons,"[1]; injured with MPP+ (4 μM, 24 h), FIG. 4",protection of the neurite network
same,neurite network of primary rat TH+ dopaminergic neurons,"[1]; injured with MPP+ (4 μM, 48 h), FIG. 5",protection of neurite network
same,ROS production in primary rat dopaminergic neurons,"[1]; injury with 6-OHDA (20 μM, 4 h), FIG. 8",reduction in ROS
same,ROS production in primary rat dopaminergic neurons,"[1]; injury with MPP+ (4 μM, 4 h), FIG. 2",reduction of reactive oxygen species (ROS)
same,ROS production in rat primary mesencephalic culture,"[1]; injury with MPP+ (4 μM, 4 h), FIG. 3",reduction ROS
